This is an account of results in US20260125374A1, “PI3K-ALPHA INHIBITORS AND METHODS OF MAKING AND USING THE SAME” (Relay Therapeutics, Inc., priority 2021, published 2026).

Series [1] in a line: Stability of I-1 solution during concentration (pH, temperature; chiral purity). The format is physicochemical. Particulars: for Purity / ee %: 1N HCl; for ee %: start ee 98.43%.
A short description of series [2]: Behavior under compression. The format is physicochemical. Here is the method: About 20 mg of I-1 Form A was compressed for 5 minutes at 2 MPa, 5 MPa and 10 MPa with a hydraulic press. XRPD characterization was performed to investigate the polymorphic behavior under compression.
About 20 mg of Form A was compressed for 5 minutes at 2 MPa, 5 MPa and 10 MPa with a hydraulic press. XRPD characterization was performed to investigate the polymorphic behavior under compression.

[3] abbreviates: 10-20° C. MeOH, pH 4, stir for 4 h.

`N#Cc1c(-c2cc(NC(=O)c3cc(F)cc(C(F)(F)F)c3)c3c(c2)C(=O)N[C@H]3c2cc(F)ccc2Cl)ccc2ncnn12` [Compound I-1, (R)-N-(3-(2-chloro-5-fluorophenyl)-6-(5-cyano-[1,2,4]triazolo[1,5-a]pyridin-6-yl)-1-oxoisoindolin-4-yl)-3-fluoro-5-(trifluoromethyl)benzamide]: the Purity in series [1] (setting [3]) is listed as 99.53%; in series [1] (40-50° C. MeOH, pH 4, stir for 68 h) it was 99.29%. Further, the ee % in series [1] (setting [3]) was 98.33%; in series [1] (40-50° C. MeOH, pH 4, stir for 4 h), 98.38%. In addition, the stability in solution entry in series [1] (10˜20° C. within 68 h) was “stable”. For the same molecule, the “XRPD peaks after compression” value in series [2] is recorded as “slightly broader”. Besides, the “form change under compression (XRPD)” value in series [2] (5 minutes at 2, 5 and 10 MPa) was “no form change”. The XRPD result in series [2] (compressed for 5 minutes at 2 Mpa) is “No form change, but peaks became slightly broader”; in series [2] (compressed for 5 minutes at 5 Mpa) it was “No form change, but peaks became slightly broader”; in series [2] (compressed for 5 minutes at 10 Mpa), “No form change, but peaks became slightly broader”.
